From ChEMBL document CHEMBL4477251, “Vialinin A and thelephantin G, potent inhibitors of tumor necrosis factor-α production, inhibit sentrin/SUMO-specific protease 1 enzymatic activity” (Bioorg Med Chem Lett, 2016)
pIC50, pKi: −log10 of the molar value. The source made the active and inactive calls. The rule behind the calls is not given here.

What was measured:
RBL-2H3 = assay: Inhibition of TNF-alpha production in antigen-stimulated rat RBL2H3 cells measured after 15 mins by ELISA; details: RBL-2H3, 0.25 h
[1] = molecular target: T1, Sentrin-specific protease 1 (Homo sapiens) (UniProt Q9P0U3); assay: Inhibition of SENP1 in human KU812 cells preincubated for 20 mins followed by addition of HA-SUMO1-VS as substrate measured after 2 hrs by immunoblot analysis; type: cell-based
T1 sequence (whole entry): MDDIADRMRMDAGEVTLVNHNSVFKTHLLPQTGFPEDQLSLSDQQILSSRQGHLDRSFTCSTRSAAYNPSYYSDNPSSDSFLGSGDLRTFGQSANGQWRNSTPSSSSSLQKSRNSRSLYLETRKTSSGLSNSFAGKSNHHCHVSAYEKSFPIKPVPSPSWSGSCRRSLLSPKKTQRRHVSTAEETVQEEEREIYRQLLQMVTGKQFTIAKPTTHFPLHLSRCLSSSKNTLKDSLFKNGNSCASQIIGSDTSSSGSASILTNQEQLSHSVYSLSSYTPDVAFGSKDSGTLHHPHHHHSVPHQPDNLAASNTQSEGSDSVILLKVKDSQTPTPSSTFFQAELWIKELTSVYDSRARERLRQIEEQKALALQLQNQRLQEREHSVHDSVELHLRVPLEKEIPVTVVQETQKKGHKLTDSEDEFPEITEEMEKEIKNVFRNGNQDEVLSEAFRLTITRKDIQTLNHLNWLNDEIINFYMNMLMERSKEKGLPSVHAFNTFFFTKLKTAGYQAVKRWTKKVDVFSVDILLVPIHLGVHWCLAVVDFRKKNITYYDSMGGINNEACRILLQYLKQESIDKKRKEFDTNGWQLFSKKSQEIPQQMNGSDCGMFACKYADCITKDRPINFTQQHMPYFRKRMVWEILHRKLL

[2] = molecular target: T2, Sentrin-specific protease 1 (Homo sapiens, UniProt Q9P0U3); assay: Inhibition of full-length recombinant human 6His-tagged SENP1 expressed in Escherichia coli BL21 (DE3) preincubated for 15 mins followed by addition of SUMO1-AMC as substrate measured after 1 hr by fluorescence analysis
T2 sequence (Q9P0U3 whole entry): T1 sequence (whole entry)

[3] = molecular target: T2, Sentrin-specific protease 1; assay: Binding affinity to full-length recombinant human 6His-tagged SENP1 expressed in Escherichia coli BL21 (DE3)
[4] = molecular target: T2, Sentrin-specific protease 1; assay: Inhibition of recombinant human 6His-tagged SENP1 catalytic domain expressed in Escherichia coli preincubated for 15 mins followed by addition of SUMO1-AMC as substrate measured after 1 hr by fluorescence analysis
[5] = molecular target: T2, Sentrin-specific protease 1; assay: Binding affinity to recombinant human 6His-tagged SENP1 catalytic domain expressed in Escherichia coli
Mast cell = assay: Inhibition of TNF-alpha production in mouse bone marrow-derived mast cells measured after 15 mins by ELISA; type: functional, cell-based; details: 0.25 h

| Structure (SMILES) | pIC50 (RBL-2H3) | inhibition [1] | pIC50 [2] | pKi [3] | pIC50 [4] | pKi [5] | pIC50 (Mast cell) |
| --- | --- | --- | --- | --- | --- | --- | --- |
| O=C(Cc1ccc(O)cc1)Oc1c(OC(=O)Cc2ccc(O)cc2)c(-c2ccc(O)cc2)c(O)c(O)c1-c1ccc(O)cc1 | 8.46 | – | – | – | – | – | – |
| CCN1C(=O)C=CC1=O | – | Active | – | – | – | – | – |
| O=C(Cc1ccccc1)Oc1c(OC(=O)Cc2ccccc2)c(-c2ccc(O)cc2)c(O)c(O)c1-c1ccc(O)cc1 [VIALININ A] | – | Active | 5.79 | 5.97 | 5.72 | 6.03 | 10.40 |
| Cc1c(C)c(-c2ccc(O)cc2)c(O)c(O)c1-c1ccc(O)cc1 | – | Active | 5.57 | – | 5.42 | – | – |
| O=C1C(O)=C(c2ccc(O)cc2)C(=O)C(O)=C1c1ccc(O)cc1 | – | – | 5.42 | – | 5.21 | – | – |
| Cc1c(C)c(-c2ccc(OCc3cn(CCCCCCNC(=O)CCCC[C@@H]4SC[C@@H]5NC(=O)N[C@@H]54)nn3)cc2)c(O)c(O)c1-c1ccc(O)cc1 | – | – | < 4.30 | – | 5.01 | – | – |
